According to the NIST ThermoML archive (doi:10.1016/j.jct.2015.08.015):

Conditions: Liquid, Ebulliometric method (Recirculating still)

CC=CCC#N [3-pentenenitrile]
Conditions | vapor or sublimation pressure [kPa]
339.24 K | 7.588
344.85 K | 9.491
353.91 K | 13.48
362.45 K | 18.32
368.92 K | 22.91
375.61 K | 28.8
382.01 K | 35.37
386.13 K | 40.09
388.17 K | 42.83
391.42 K | 47.08
394.31 K | 51.62
398.64 K | 57.83
402.51 K | 65.49
407.31 K | 74.49
409.72 K | 80.01
412.88 K | 86.78
414.32 K | 90.5
417.51 K | 97.9
